# Laboratory results taken from article PMC7155171, “Probing the Open Global Health Chemical Diversity Library for Multistage-Active Starting Points for Next-Generation Antimalarials” (ACS Infectious Diseases, 2020).
# Where two headings read alike, the source gives them in different places.
# Tests used:
# P. falciparum Dd2 = assay: SYBR green I asexual blood stage proliferation assay (96 h); type: cell-based, Plasmodium falciparum; conditions: for IC50 / Emax: Plasmodium falciparum
# [1] = test system: P. falciparum Dd2 (PfLuc) line expressing firefly luciferase, asexual blood stage; assay: microbe, parasite or virus in culture; type: cell-based, Plasmodium falciparum; conditions: Plasmodium falciparum
# [2] = test system: P. berghei liver stage (PbLuc); assay: P. berghei luciferase liver stage (PbLuc) assay in HepG2-A16-CD81 hepatocytes; type: cell-based, Plasmodium berghei
# [3] = HepG2 cytotoxicity screening (CellTiter-Glo); conditions: human, uninfected HepG2-A16-CD81 (EGFP) hepatocytes
# [4] = DD2, 11-pt dose response, 96hr, read-out: P. falciparum Sybr Green I ABS 11-pt Reconfirmation Dose Response (96hr): IC50
# [5] = DD2, 11-pt dose response, 96hr, read-out: P. falciparum Sybr Green I ABS 11-pt Reconfirmation Dose Response (96hr): Maximum inhibition (%)
# [6] = DD2, read-out: P. falciparum Luciferase ABS 11-pt Reconfirmation Dose Response (48hr): IC50, 11-pt dose response, 48hr
# [7] = DD2, 8-pt dose response, 96hr, read-out: P. falciparum Luciferase ABS 8-pt Reconfirmation Dose Response (96hr): IC50
# [8] = DD2, 8-pt dose response, 96hr, read-out: P. falciparum Luciferase ABS 8-pt Reconfirmation Dose Response (96hr): Maximum inhibition (%)
# [9] = DD2, 11-pt dose response, 48hr, read-out: P. falciparum Luciferase ABS 11-pt Reconfirmation Dose Response (48hr): Maximum inhibition (%)
# [10] = DD2, 11-pt dose response, 96hr, read-out: P. falciparum Luciferase ABS 11-pt Reconfirmation Dose Response (96hr): IC50
# [11] = DD2, 11-pt dose response, 96hr, read-out: P. falciparum Luciferase ABS 11-pt Reconfirmation Dose Response (96hr): Maximum inhibition (%)
# [12] = DD2, Sybr Green I, 11-pt dose response, 96hr, read-out: CDD P. falciparum Sybr Green I ABS 11-pt Reconfirmation Dose Response (96hr): IC50
# [13] = DD2, Sybr Green I, 11-pt dose response, 96hr, read-out: CDD P. falciparum Sybr Green I ABS 11-pt Reconfirmation Dose Response (96hr): Maximum inhibition (%)
# [14] = DD2, read-out: CDD P. falciparum Luciferase ABS 11-pt Reconfirmation Dose Response (48hr): IC50 (μM), 11-pt dose response, 48hr
# [15] = DD2, 8-pt dose response, 96hr, read-out: CDD P. falciparum Luciferase ABS 8-pt Reconfirmation Dose Response (96hr): IC50
# [16] = DD2, 8-pt dose response, 96hr, read-out: CDD P. falciparum Luciferase ABS 8-pt Reconfirmation Dose Response (96hr): Maximum inhibition (%)
# [17] = DD2, 11-pt dose response, 48hr, read-out: CDD P. falciparum Luciferase ABS 11-pt Reconfirmation Dose Response (48hr): Maximum inhibition (%)
# [18] = DD2, 11-pt dose response, 96hr, read-out: CDD P. falciparum Luciferase ABS 11-pt Reconfirmation Dose Response (96hr): IC50
# [19] = DD2, 11-pt dose response, 96hr, read-out: CDD P. falciparum Luciferase ABS 11-pt Reconfirmation Dose Response (96hr): Maximum inhibition (%)
smiles,measurement,setting,value
CCc1cnc(N)nc1NC(C)c1ccc(C)c(C)c1 (stereo not drawn) [DDD01250400],IC50,P. falciparum Dd2; [4],4.48 µM
same,Emax,P. falciparum Dd2; [5],62.1%
same,IC50,[1]; [6],2.84 µM
same,IC50,[1]; [7],1.66 µM
same,Emax,[1]; [8],81%
same,Emax,[1]; [9],94.8%
same,IC50,[1]; [10],0.373 µM
same,Emax,[1]; [11],99.6%
same,confirmed liver stage activity,[2],confirmed liver stage activity
COc1cc(CNCC(O)c2ccc(F)cc2F)cc2c1OCO2 (stereo not drawn) [DDD01296730],IC50,P. falciparum Dd2; [4],4.87 µM
same,IC50,[1]; [6],4.89 µM
same,IC50,[1]; [7],1.16 µM
same,Emax,[1]; [8],88.4%
same,Emax,[1]; [9],87.3%
same,IC50,[1]; [10],2.48 µM
same,Emax,[1]; [11],98.1%
"O=C(Nc1ccc(OC2CCCC2)cc1)C1CCCN1c1nccs1 (stereo not drawn) [DDD01297375, O=C(Nc1ccc(OC2CCCC2)cc1)C1CCCN1c1nccs1]",CDD P. falciparum Sybr Green I ABS Dd2 Dose Response: Maximum measured (%),"P. falciparum Dd2; Dd2, 96 h",45.3%
same,IC50,"P. falciparum Dd2; DD2, 96 h, read-out: CDD P. falciparum Sybr Green I ABS Dd2 Dose Response: IC50",> 12.5 µM
same,IC50,"[1]; DD2, read-out: CDD P. falciparum Luc 11pt dose response (96hr, n=2): IC50 (μM), 96hr, 11-point, n=2",0.0372 µM
same,IC50,"[1]; DD2, read-out: CDD P. falciparum Luciferase 11pt dose response (48hr, n=2): IC50 (μM), 48hr, 11-point, n=2",> 10 µM
same,Emax,"[1]; DD2, 48hr, 11-point, read-out: CDD P. falciparum Luciferase ABS 11-pt Reconfirmation Dose Response (48hr): Maximum inhibition (%)",50%
same,Emax,"[1]; DD2, 96hr, 11-point, read-out: CDD P. falciparum Luciferase ABS 11-pt Reconfirmation Dose Response (96hr): Maximum inhibition (%)",94.7%
OCCN1CCC(CNCc2ccccc2OC(F)(F)F)CC1 [DDD01297525],IC50,P. falciparum Dd2; [4],7.44 µM
same,Emax,P. falciparum Dd2; [5],77.9%
same,IC50,[1]; [6],> 12.5 µM
same,IC50,[1]; [7],1.51 µM
same,Emax,[1]; [8],88.7%
same,Emax,[1]; [9],54.6%
same,IC50,[1]; [10],5.42 µM
same,Emax,[1]; [11],88.7%
CC(O)CN1CCC(CNCc2cccc(OC(F)(F)F)c2)CC1 (stereo not drawn) [DDD01297560],IC50,P. falciparum Dd2; [12],2.94 µM
same,Emax,P. falciparum Dd2; [13],91.2%
same,IC50,[1]; [14],> 12.5 µM
same,IC50,[1]; [15],1.04 µM
same,Emax,[1]; [16],91%
same,Emax,[1]; [17],58.6%
same,IC50,[1]; [18],5.4 µM
same,Emax,[1]; [19],87.8%
Cc1ccnc(NC(=O)c2[nH]nc(C(C)C)c2Br)c1 [DDD01298775],IC50,P. falciparum Dd2; [12],8.74 µM
same,Emax,P. falciparum Dd2; [13],51.2%
same,IC50,[1]; [14],3.6 µM
same,IC50,[1]; [15],0.39 µM
same,Emax,[1]; [16],91.3%
same,Emax,[1]; [17],93%
same,IC50,[1]; [18],1.39 µM
same,Emax,[1]; [19],97%
CC(C)c1n[nH]c(C(=O)Nc2ccccn2)c1Br [DDD01298780],IC50,P. falciparum Dd2; [12],4.27 µM
same,Emax,P. falciparum Dd2; [13],51.4%
same,IC50,[1]; [14],4.01 µM
same,IC50,[1]; [15],0.53 µM
same,Emax,[1]; [16],92.3%
same,Emax,[1]; [17],87.6%
same,IC50,[1]; [18],3.99 µM
same,Emax,[1]; [19],95.1%
Cc1cc(C)n(C2CN(CC(O)c3cc(F)ccc3F)C2)n1 (stereo not drawn) [DDD01298957],IC50,P. falciparum Dd2; [12],0.733 µM
same,Emax,P. falciparum Dd2; [13],98.5%
same,IC50,[1]; [14],1.46 µM
same,IC50,[1]; [15],0.21 µM
same,Emax,[1]; [16],94.9%
same,Emax,[1]; [17],98.6%
same,IC50,[1]; [18],0.854 µM
same,Emax,[1]; [19],100%
CC(O)CN1CCC(CNCc2cccc(C(F)(F)F)c2)CC1 (stereo not drawn) [DDD01300262],IC50,P. falciparum Dd2; [4],2.46 µM
same,Emax,P. falciparum Dd2; [5],91.1%
same,IC50,[1]; [6],9.69 µM
same,IC50,[1]; [7],1.59 µM
same,Emax,[1]; [8],89.5%
same,Emax,[1]; [9],69.7%
same,IC50,[1]; [10],4.76 µM
same,Emax,[1]; [11],92.7%
CC(O)CN1CCC(CNCc2cccc(Cl)c2)CC1 (stereo not drawn) [DDD01300263],IC50,P. falciparum Dd2; [12],3.65 µM
same,Emax,P. falciparum Dd2; [13],89.5%
same,IC50,[1]; [14],5.96 µM
same,IC50,[1]; [15],0.76 µM
same,Emax,[1]; [16],89.7%
same,Emax,[1]; [17],89%
same,IC50,[1]; [18],2.57 µM
same,Emax,[1]; [19],98%
CC(O)CN1CCC(CNCc2cccc(Br)c2)CC1 (stereo not drawn) [DDD01304344],IC50,P. falciparum Dd2; [12],2.06 µM
same,Emax,P. falciparum Dd2; [13],93.8%
same,IC50,[1]; [14],3.63 µM
same,IC50,[1]; [15],0.58 µM
same,Emax,[1]; [16],91.2%
same,Emax,[1]; [17],92.1%
same,IC50,[1]; [18],1.64 µM
same,Emax,[1]; [19],98.2%
CC(C)c1nn(C)c(Cl)c1CNCC(O)c1cccc(F)c1 (stereo not drawn) [DDD01304823],IC50,P. falciparum Dd2; [12],3.66 µM
same,Emax,P. falciparum Dd2; [13],92.5%
same,IC50,[1]; [14],3.48 µM
same,IC50,[1]; [15],0.58 µM
same,Emax,[1]; [16],92.1%
same,Emax,[1]; [17],89.6%
same,IC50,[1]; [18],1.39 µM
same,Emax,[1]; [19],98.7%
CC(C)NC(=O)CNC(=O)C12CCC(=O)N1c1cc(Cl)ccc1S2 (stereo not drawn) [UCSD-0589377],inhibition at 2 µM,[3],3.84%
c1nc(N2CCCC(Cn3cncn3)C2)c2sccc2n1 (stereo not drawn) [UCSD-0620442],inhibition at 2 µM,[3],1.85%
N#Cc1nc(COc2ccc3c(c2)OCO3)oc1NC1CCCCC1 [UCSD-0630877],inhibition at 2 µM,[3],1.44%
Cc1nc(C)c(CN2CCOC[C@H](Oc3ccccc3)C2)s1 [UCSD-0784893],inhibition at 2 µM,[3],25.2%
Cc1cnc2c(c1NCc1cccnc1)c(=O)n(C)c(=O)n2C [UCSD-0787013],inhibition at 2 µM,[3],5.36%
CCN1C[C@@H]2[C@@H](OC)CCN(C(=O)c3cc(C)nn3CC)[C@@H]2C1 [UCSD-0791117],inhibition at 2 µM,[3],-3.65%
CCS(=O)(=O)NCC1OCCc2cn(CC3CCOCC3)nc21 (stereo not drawn) [UCSD-0791354],inhibition at 2 µM,[3],-4.05%
Cn1cnnc1S(=O)(=O)C1CCN(S(=O)(=O)c2ccc(F)c(Cl)c2)CC1 [UCSD-0795178],inhibition at 2 µM,[3],2.47%
CCn1nc(C)c2c1cnn2CCNS(=O)(=O)c1cccs1 [UCSD-0797219],inhibition at 2 µM,[3],-1.63%
CCCNc1cc(-c2c[nH]nc2C2CCN(C(=O)C3CCC3)C2)ccn1 (stereo not drawn) [UCSD-0798526],inhibition at 2 µM,[3],83.5%
CCc1nnc2n1CCN(c1nc(C)cc(N(C)C)n1)C2 [UCSD-0803797],inhibition at 2 µM,[3],5.32%
CNC(=O)c1cccnc1NCc1ccc(Cn2ccnc2)cc1 [UCSD-0807977],inhibition at 2 µM,[3],73.6%
COc1cccc(CN2CCCC2c2ccc[nH]2)c1 (stereo not drawn) [UCSD-0808841],inhibition at 2 µM,[3],-1.63%
O=C(c1cnc(OCC(F)(F)F)c(Cl)c1)N1CCc2ccc(O)cc2C1 [UCSD-0809130],inhibition at 2 µM,[3],-5.64%
COCCCC(=O)Nc1cc(Cl)c(Cl)cn1 [UCSD-0809266],inhibition at 2 µM,[3],59.5%
Cc1cc(C)c(CCNC(=O)CN2CCCN(C(N)=O)CC2)c(C)c1 [UCSD-0809576],inhibition at 2 µM,[3],-4.31%
CC(C)(C)n1ncc2c1CCCC2NCc1ccc2c(c1)CCO2 (stereo not drawn) [UCSD-0811334],inhibition at 2 µM,[3],2.05%
O=C(NC1CC1)c1cc(NC(=O)N2CCOCC2)ccc1Cl [UCSD-0811531],inhibition at 2 µM,[3],1.26%
CCCNC(=O)CN1CCOC(CC)C1 (stereo not drawn) [UCSD-0814421],inhibition at 2 µM,[3],-1.44%
Clc1cnccc1NCc1cccc(COC2CCOCC2)c1 [UCSD-0814625],inhibition at 2 µM,[3],43.7%
CC(C)n1cnnc1C1CCCN(S(=O)(=O)CC2CCCC2)C1 (stereo not drawn) [UCSD-0815907],inhibition at 2 µM,[3],27.3%
CS(=O)(=O)CCC(=O)NC1(c2cccc(C(F)(F)F)c2)CCC1 [UCSD-0816629],inhibition at 2 µM,[3],-9.29%
CC(NCc1cccs1)c1ccc(OCc2nccn2C)cc1 (stereo not drawn) [UCSD-0817286],inhibition at 2 µM,[3],-3.54%
